Assay results published in patent publication US9527867B2, “Antibacterial biaromatic derivatives” (Actelion Pharmaceuticals Ltd., priority 2013, dated 2016).
Values after ≈ are worked out from the molar mass of the structure shown.

Tests used:
Assay in all cases: Bacterial growth minimal inhibitory concentration (broth microdilution, CLSI M7-A7)
Format in all cases: cell-based
[1] = tested on: Enterococcus faecium A949; details: Enterococcus faecium, A949, cation-adjusted Mueller-Hinton Broth, multiply-resistant strain (in particular quinolone-resistant), read-out: MIC for E. faecium A949
Outline: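 Broth microdilution after CLSI M7-A7 in cation-adjusted Mueller-Hinton medium gave MIC values in mg/L.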

[2] = tested on: Acinetobacter baumannii T6474; details: Acinetobacter baumannii, T6474, cation-adjusted Mueller-Hinton Broth, multiply-resistant strain (in particular quinolone-resistant)
Outline: (§1)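 Compounds are serially diluted in cation-adjusted Mueller-Hinton broth, inoculated and scored for MIC (mg/L) per the CLSI M7-A7 microdilution standard. A798 and T6474 carry multiple resistances including to quinolones.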

[3] = tested on: Moraxella catarrhalis A894; details: Moraxella catarrhalis, A894, cation-adjusted Mueller-Hinton Broth, quinolone-sensitive strain
Outline: as §1

[4] = tested on: Staphylococcus aureus A798; details: Staphylococcus aureus, A798, cation-adjusted Mueller-Hinton Broth, multiply-resistant strain (in particular quinolone-resistant), read-out: MIC for S. aureus A798
Outline: as §1

[5] = tested on: Staphylococcus aureus ATCC29213; details: Staphylococcus aureus, ATCC29213, cation-adjusted Mueller-Hinton Broth, methicillin-sensitive and quinolone-sensitive strain, read-out: MIC for S. aureus ATCC29213
Outline: as §1

| SMILES | MIC [1] [mg/L] | MIC [2] [mg/L] | MIC [3] [mg/L] | MIC [4] [mg/L] | MIC [5] [mg/L] |
| --- | --- | --- | --- | --- | --- |
| COc1cnnc(-c2cccc(CNCC[C@H]3CN(c4ccc5c(n4)NC(=O)CS5)C(=O)O3)c2)c1 [Example 99, 6-((S)-5-{2-[3-(5-methoxy-pyridazin-3-yl)-benzylamino]-ethyl}-2-oxo-oxazolidin-3-yl)-4H-pyrido[3,2-b][1,4]thiazin-3-one] | 2 (≈ 4.06 µM) | 0.125 (≈ 0.254 µM) | ≤ 0.016 | 0.031 (≈ 0.0629 µM) | 0.031 (≈ 0.0629 µM) |
| N#Cc1cccc(-c2cccc(CNCC[C@@H]3CN(c4ccc5c(n4)NC(=O)CO5)C(=O)O3)c2)c1 [Example 33, 3′-({2-[(R)-2-oxo-3-(3-oxo-3,4-dihydro-2H-pyrido[3,2-b][1,4]oxazin-6-yl)-oxazolidin-5-yl]-ethylamino}-methyl)-biphenyl-3-carbonitrile] | 2 (≈ 4.26 µM) | 0.125 (≈ 0.266 µM) | ≤ 0.016 | 0.25 (≈ 0.532 µM) | 0.125 (≈ 0.266 µM) |
| COc1cncc(-c2cccc(CNCC[C@@H]3CN(c4ccc5c(c4)NC(=O)CS5)C(=O)O3)c2)n1 [Example 25, 6-((R)-5-{2-[3-(6-methoxy-pyrazin-2-yl)-benzylamino]-ethyl}-2-oxo-oxazolidin-3-yl)-4H-benzo[1,4]thiazin-3-one] | 1 (≈ 2.03 µM) | 0.25 (≈ 0.509 µM) | ≤ 0.016 | 0.031 (≈ 0.0631 µM) | 0.031 (≈ 0.0631 µM) |
| COc1cccc(-c2cncc(CNCC[C@@H]3CN(c4ccc5c(c4)NC(=O)CS5)C(=O)O3)c2)c1 [Example 72, 6-[(R)-5-(2-{[5-(3-methoxy-phenyl)-pyridin-3-ylmethyl]-amino}-ethyl)-2-oxo-oxazolidin-3-yl]-4H-benzo[1,4]thiazin-3-one] | 4 (≈ 8.15 µM) | 1 (≈ 2.04 µM) | 0.063 (≈ 0.128 µM) | 1 (≈ 2.04 µM) | 0.5 (≈ 1.02 µM) |
| CNC(=O)COc1cccc(-c2cccc(CNCC[C@H]3CN(c4ccc5c(n4)NC(=O)CO5)C(=O)O3)c2)c1 [Example 78, N-methyl-2-[3′-({2-[(S)-2-oxo-3-(3-oxo-3,4-dihydro-2H-pyrido[3,2-b][1,4]oxazin-6-yl)-oxazolidin-5-yl]-ethylamino}-methyl)-biphenyl-3-yloxy]-acetamide] | 8 (≈ 15 µM) | 1 (≈ 1.88 µM) | 0.031 (≈ 0.0583 µM) | 1 (≈ 1.88 µM) | 0.5 (≈ 0.941 µM) |
| COc1cccc(-c2cccc(CNCC[C@H]3CN(c4ccc5c(c4)NC(=O)CO5)C(=O)O3)c2O)n1 [Example 90, 6-((S)-5-{2-[2-hydroxy-3-(6-methoxy-pyridin-2-yl)-benzylamino]-ethyl}-2-oxo-oxazolidin-3-yl)-4H-benzo[1,4]oxazin-3-one] | 2 (≈ 4.08 µM) | 0.5 (≈ 1.02 µM) | ≤ 0.016 | 0.031 (≈ 0.0632 µM) | 0.063 (≈ 0.128 µM) |
| O=C1COc2ccc(N3C[C@H](CCNCc4cccc(-c5cccc(OCCCO)c5)c4)OC3=O)nc2N1 [Example 53, 6-[(S)-5-(2-{[3′-(3-hydroxy-propoxy)-biphenyl-3-ylmethyl]-amino}-ethyl)-2-oxo-oxazolidin-3-yl]-4H-pyrido[3,2-b][1,4]oxazin-3-one] | 16 (≈ 30.9 µM) | 4 (≈ 7.71 µM) | 0.125 (≈ 0.241 µM) | 1 (≈ 1.93 µM) | 2 (≈ 3.86 µM) |
| N#Cc1cncc(-c2cccc(CNCC[C@@H]3CN(c4ccc5c(c4)NC(=O)CS5)C(=O)O3)c2)c1 [Example 17, 5-[3-({2-[(R)-2-oxo-3-(3-oxo-3,4-dihydro-2H-benzo[1,4]thiazin-6-yl)-oxazolidin-5-yl]-ethylamino}-methyl)-phenyl]-nicotinonitrile] | 1 (≈ 2.06 µM) | 0.125 (≈ 0.257 µM) | ≤ 0.016 | 0.125 (≈ 0.257 µM) | 0.063 (≈ 0.13 µM) |
| N#Cc1cnc(O)c(-c2cccc(CNCC[C@@H]3CN(c4ccc5c(c4)NC(=O)CS5)C(=O)O3)c2)c1 [Example 19, 6-hydroxy-5-[3-({2-[(R)-2-oxo-3-(3-oxo-3,4-dihydro-2H-benzo[1,4]thiazin-6-yl)-oxazolidin-5-yl]-ethylamino}-methyl)-phenyl]-nicotinonitrile] | > 8 | 1 (≈ 1.99 µM) | 0.125 (≈ 0.249 µM) | 1 (≈ 1.99 µM) | 1 (≈ 1.99 µM) |
| N#Cc1cc(O)nc(-c2cccc(CNCC[C@@H]3CN(c4ccc5c(c4)NC(=O)CS5)C(=O)O3)c2)c1 [Example 47, 2-hydroxy-6-[3-({2-[(R)-2-oxo-3-(3-oxo-3,4-dihydro-2H-benzo[1,4]thiazin-6-yl)-oxazolidin-5-yl]-ethylamino}-methyl)-phenyl]-isonicotinonitrile] | > 8 | 8 (≈ 15.9 µM) | 0.25 (≈ 0.498 µM) | 4 (≈ 7.97 µM) | 4 (≈ 7.97 µM) |
| COc1cccc(-c2cccc(CNCC[C@H]3CN(c4ccc5c(c4)NC(=O)CS5)C(=O)O3)c2)n1 [Example 43, 6-((S)-5-{2-[3-(6-methoxy-pyridin-2-yl)-benzylamino]-ethyl}-2-oxo-oxazolidin-3-yl)-4H-benzo[1,4]thiazin-3-one] | 2 (≈ 4.08 µM) | 0.5 (≈ 1.02 µM) | ≤ 0.016 | 0.063 (≈ 0.128 µM) | 0.125 (≈ 0.255 µM) |
| COc1cnnc(-c2cccc(CNCC[C@@H]3CN(c4ccc5c(c4)NC(=O)CS5)C(=O)O3)c2)c1 [Example 30, 6-((R)-5-{2-[3-(5-methoxy-pyridazin-3-yl)-benzylamino]-ethyl}-2-oxo-oxazolidin-3-yl)-4H-benzo[1,4]thiazin-3-one] | 4 (≈ 8.14 µM) | 0.25 (≈ 0.509 µM) | 0.031 (≈ 0.0631 µM) | 0.125 (≈ 0.254 µM) | 0.125 (≈ 0.254 µM) |
| COc1cnnc(-c2cccc(CNCC[C@@H]3CN(c4ccc5c(n4)NC(=O)CS5)C(=O)O3)c2)c1 [Example 98, 6-((R)-5-{2-[3-(5-methoxy-pyridazin-3-yl)-benzylamino]-ethyl}-2-oxo-oxazolidin-3-yl)-4H-pyrido[3,2-b][1,4]thiazin-3-one] | 4 (≈ 8.12 µM) | 0.25 (≈ 0.508 µM) | 0.031 (≈ 0.0629 µM) | 0.125 (≈ 0.254 µM) | 0.25 (≈ 0.508 µM) |
| COc1cccc(-c2cccc(CNCC[C@@H]3CN(c4ccc5c(c4)NC(=O)CS5)C(=O)O3)c2)n1 [Example 15, 6-((R)-5-{2-[3-(6-methoxy-pyridin-2-yl)-benzylamino]-ethyl}-2-oxo-oxazolidin-3-yl)-4H-benzo[1,4]thiazin-3-one] | 0.5 (≈ 1.02 µM) | 0.125 (≈ 0.255 µM) | ≤ 0.016 | 0.031 (≈ 0.0632 µM) | 0.063 (≈ 0.128 µM) |
| O=C1COc2ccc(N3C[C@H](CCNCc4cccc(-c5cccc(O)c5)c4)OC3=O)nc2N1 [Example 63, 6-((S)-5-{2-[(3′-hydroxy-biphenyl-3-ylmethyl)-amino]-ethyl}-2-oxo-oxazolidin-3-yl)-4H-pyrido[3,2-b][1,4]oxazin-3-one] | 16 (≈ 34.7 µM) | 0.5 (≈ 1.09 µM) | ≤ 0.063 | 1 (≈ 2.17 µM) | 1 (≈ 2.17 µM) |
| COc1cnnc(-c2cncc(CNCC[C@H]3CN(c4ccc5c(n4)NC(=O)CO5)C(=O)O3)c2)c1 [Example 110, (S)-6-(5-(2-(((5-(5-methoxypyridazin-3-yl)pyridin-3-yl)methyl)amino)ethyl)-2-oxooxazolidin-3-yl)-2H-pyrido[3,2-b][1,4]oxazin-3(4H)-one] | > 8 | 2 (≈ 4.19 µM) | 0.125 (≈ 0.262 µM) | 4 (≈ 8.38 µM) | 4 (≈ 8.38 µM) |
| COCCOc1cccc(-c2cccc(CNCC[C@H]3CN(c4ccc5c(n4)NC(=O)CO5)C(=O)O3)c2)c1 [Example 54, 6-[(S)-5-(2-{[3′-(2-methoxy-ethoxy)-biphenyl-3-ylmethyl]-amino}-ethyl)-2-oxo-oxazolidin-3-yl]-4H-pyrido[3,2-b][1,4]oxazin-3-one] | 16 (≈ 30.9 µM) | 8 (≈ 15.4 µM) | 0.125 (≈ 0.241 µM) | 2 (≈ 3.86 µM) | 2 (≈ 3.86 µM) |
| COc1cc(O)cc(-c2cccc(CNCC[C@@H]3CN(c4ccc5c(c4)NC(=O)CS5)C(=O)O3)c2)c1 [Example 10, 6-((R)-5-{2-[(3′-hydroxy-5′-methoxy-biphenyl-3-ylmethyl)-amino]-ethyl}-2-oxo-oxazolidin-3-yl)-4H-benzo[1,4]thiazin-3-one] | 8 (≈ 15.8 µM) | 0.5 (≈ 0.989 µM) | ≤ 0.016 | 0.5 (≈ 0.989 µM) | 0.5 (≈ 0.989 µM) |
| COc1cccc(-c2cncc(CNCC[C@H]3CN(c4ccc5c(n4)NC(=O)CO5)C(=O)O3)n2)c1 [Example 104, 6-[(S)-5-(2-{[6-(3-methoxy-phenyl)-pyrazin-2-ylmethyl]-amino}-ethyl)-2-oxo-oxazolidin-3-yl]-4H-pyrido[3,2-b][1,4]oxazin-3-one] | 2 (≈ 4.2 µM) | 0.5 (≈ 1.05 µM) | 0.031 (≈ 0.0651 µM) | 0.25 (≈ 0.525 µM) | 0.25 (≈ 0.525 µM) |
| COc1cccc(-c2cc(CNCC[C@H]3CN(c4ccc5c(n4)NC(=O)CO5)C(=O)O3)cnn2)c1 [Example 105, 6-[(S)-5-(2-{[6-(3-methoxy-phenyl)-pyridazin-4-ylmethyl]-amino}-ethyl)-2-oxo-oxazolidin-3-yl]-4H-pyrido[3,2-b][1,4]oxazin-3-one] | > 8 | 4 (≈ 8.39 µM) | 0.25 (≈ 0.525 µM) | 8 (≈ 16.8 µM) | 4 (≈ 8.39 µM) |
